Results published in patent US20260007760A1, “CAMPTOTHECIN DERIVATIVES THAT BIND TO DDX5 PROTEIN AND PRODRUGS THEREOF” (priority 2022, published 2026).

What was measured:
[1] = Lactone to carboxylate form conversion in pH 7.4 (RP-HPLC); assay type: physicochemical; conditions: for Conversion from lactone form (active) to carboxylate form (inactive) compared with reference compounds: pH 7.4, references exatecan, DXd, SN-38, FL118
cancer cells = conditions: cited from earlier work
[2] = over 21 days; bioconjugated to anti-HER2 antibody, DAR 8; cited from earlier work
[3] = tested on: Survivin, cIAP2, Mcl-1, XIAP; experiment: Western blot, expression inhibition of anti-apoptotic proteins in FaDu cell line; assay type: cell-based; conditions: Western blot, 0, 10, 100 nM, 24 hours
DDX5 = DDX5 (Homo sapiens, UniProt P17844); experiment: Western blot, DDX5 degradation in two cell lines (FaDu, A549); conditions: FaDu and A549, 0, 10, 100 nM
[4] = mouse, in vivo, ip
[5] = tested on: MDA-MB-453 (HER2++) cell line; experiment: Cell viability assay (CellTiter-Glo), MDA-MB-453 cell line; conditions: MDA-MB-453 and FaDu cell lines, 3 days
[6] = tested on: FaDu (Trop2+++) cell lines and Calu-6 (Trop2−−) cell lines; experiment: In vitro cell cytotoxicity test of Sacituzumab-25-6 (6 days); conditions: free payload
FaDu cell line = experiment: Cell viability assay (CellTiter-Glo), FaDu cell line; assay type: cell-based; conditions: FaDu (does not express ABCG2), 3-day incubation
Procedure: After 24 hours, the cells were treated with 100 μl of drugs at 9 concentrations (serial dilutions of 1/5 each from 1,000 nM). […] Also, a control group (drug concentration 0) that was not treated with drugs was prepared. Incubation at constant temperature (37° C., 5% CO2) was performed for 3 or 6 days. 100 ul of CellTiter-Glo reagent (using CellTiter-Glo® Luminescent Cell Viability Assay kit (Promega, G7571)) was added to each well and pipetted. After incubating at constant temperature (RT) for 10 minutes, luminescence was measured.
Cell viability assays were performed on MDA-MB-453 (HER2++) cell lines and FaDu (HER2+) cell lines using the same method as Example 2-2.

[7] = days 1 and 8 of a 21-day cycle, 25 patients; cited from earlier work
[8] = human, in vivo; cited from earlier work

DDX5, sequence (P17844 whole entry): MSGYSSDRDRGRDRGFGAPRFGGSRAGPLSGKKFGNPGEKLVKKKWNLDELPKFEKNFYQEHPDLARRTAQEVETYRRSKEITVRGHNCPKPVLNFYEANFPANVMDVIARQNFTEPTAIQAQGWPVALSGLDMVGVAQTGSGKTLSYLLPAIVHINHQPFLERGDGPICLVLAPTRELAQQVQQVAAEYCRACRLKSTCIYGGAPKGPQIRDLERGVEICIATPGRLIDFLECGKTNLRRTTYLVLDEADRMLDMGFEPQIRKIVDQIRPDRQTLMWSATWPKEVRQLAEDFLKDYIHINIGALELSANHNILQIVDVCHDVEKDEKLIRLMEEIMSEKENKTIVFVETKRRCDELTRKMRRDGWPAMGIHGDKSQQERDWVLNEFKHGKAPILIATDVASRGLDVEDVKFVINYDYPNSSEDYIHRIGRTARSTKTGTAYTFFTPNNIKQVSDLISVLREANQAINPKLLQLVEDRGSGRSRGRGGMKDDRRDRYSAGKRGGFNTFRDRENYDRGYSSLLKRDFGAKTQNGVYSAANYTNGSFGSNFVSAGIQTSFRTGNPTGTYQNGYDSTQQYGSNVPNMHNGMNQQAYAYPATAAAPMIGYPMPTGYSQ

## CC[C@@]1(O)C(=O)OCc2c1cc1n(c2=O)Cc2c-1nc1cc(F)c(C)c3c1c2[C@@H](NC(=O)CO)CC3 [Dxd]
[1]; pH 7.4, 37° C.
  Degree of formation of the carboxylate form: about 76.5%
  Rate of conversion from the lactone form to the carboxylate form: 0.6 % per minute
Cancer cells
  Activity in cancer cells relative to SN-38: 10 times
[2]
  Released in plasma: 2.1%

## CC[C@@]1(O)C(=O)OCc2c1cc1n(c2=O)Cc2c-1nc1cc(F)c(C)c3c1c2[C@@H](N)CC3 [Exatecan]
[3]
  Expression of anti-apoptotic proteins (Survivin, cIAP2, Mcl-1, XIAP): strongly inhibits the expression of anti-apoptotic proteins

## CC[C@@]1(O)C(=O)OCc2c1cc1n(c2=O)Cc2cc3cc4c(cc3nc2-1)OCO4 [FL118]
[3]
  Expression of anti-apoptotic proteins (Survivin, cIAP2, Mcl-1, XIAP): strongly inhibiting the expression of anti-apoptotic proteins
Cancer cells; various cancer cell lines
  Cytotoxicity relative to SN-38 (times more potent): 5-10 times
DDX5
  DDX5 degradation: superior to other substances in DDX5 degradation

## CC[C@@]1(O)C(=O)OCc2c1cc1n(c2=O)Cc2c-1nc1cc3c(c4c1c2[C@@H](N)CC4)OCO3 [PBX-7011, (1S,10S)-1-amino-10-ethyl-10-hydroxy-1,2,3,10,13,16-hexahydro-11H,14H-benzo[de][1,3]dioxolo[4,5-g]pyrano[3′,4′:6,7]indolizino[1,2-b]quinoline-11,14-dione]
[3]
  Expression of anti-apoptotic proteins (Survivin, cIAP2, Mcl-1, XIAP): decrease in the expression of Survivin, cIAP2, Mcl-1, and XIAP as the concentration increased

## CC[C@@]1(O)C(=O)OCc2c1cc1n(c2=O)Cc2c-1nc1cc3c(c4c1c2[C@@H](NC(=O)CO)CC4)OCO3 [PBX-7014]
[3]
  Expression of anti-apoptotic proteins (Survivin, cIAP2, Mcl-1, XIAP): decrease in the expression of Survivin, cIAP2, Mcl-1, and XIAP as the concentration increased
[1]; pH 7.4, 37° C.
  Rate of conversion from the lactone form to the carboxylate form: 0.8 % per minute
[1]
  Conversion from lactone form (active) to carboxylate form (inactive) compared with reference compounds: more rapidly and at a higher rate than other reference compounds

## CC[C@@]1(O)C(=O)OCc2c1cc1n(c2=O)Cc2c-1nc1cc3c(c4c1c2[C@@H](NC(=O)[C@@H](C)O)CC4)OCO3 [PBX-7016]
[3]
  Expression of anti-apoptotic proteins (Survivin, cIAP2, Mcl-1, XIAP): decrease in the expression of Survivin, cIAP2, Mcl-1, and XIAP as the concentration increased
[1]; pH 7.4, 37° C.
  Rate of conversion from the lactone form to the carboxylate form: 0.8 % per minute
[1]
  Conversion from lactone form (active) to carboxylate form (inactive) compared with reference compounds: more rapidly and at a higher rate than other reference compounds
[4]
  Clearance from the blood: cleared from the blood very quickly
[5]
  IC50 level compared with Dxd: equivalent to or higher than Dxd
[6]
  Cell membrane penetration of non-target cells / cell death: can penetrate the cell membrane of non-target cells
DDX5
  DDX5 degradation: inhibited DDX5 in a concentration-dependent manner

## CC[C@@]1(O)C(=O)OCc2c1cc1n(c2=O)Cc2c-1nc1cc3c(c4c1c2[C@@H](NC(=O)[C@@H](O)C1CC1)CC4)OCO3 [PBX-7024]
FaDu cell line
  Cell killing efficacy (IC50): strong cell killing efficacy
[1]
  Conversion from lactone form (active) to carboxylate form (inactive) compared with reference compounds: more rapidly and at a higher rate than other reference compounds

## CCc1c2c(nc3ccc(O)cc13)-c1cc3c(c(=O)n1C2)COC(=O)[C@]3(O)CC [SN-38]
Cancer cells; several cell lines
  IC50 values: nanomolar range

## sacituzumab govitecan
[7]
  Dose-limiting toxicity: neutropenia
[8]
  Diarrhea, all-grade: 65%
  Febrile neutropenia: 7%
  Neutropenia, Grade≥3: 47%
  Neutropenia, all-grade: 61%
  Neutropenic colitis: 0.5%
